Measured values from patent US20240425464A1, “Substituted Monohydrazides as Potent Antifungal Agents” (University of Kentucky Research Foundation, priority 2023, published 2024).
≈ marks a conversion by molar mass, not a printed value. Read-outs that look alike come from different tables or passages of the source.

Tested on: C. auris strain AR Bank #390 (L)
Test: MIC determination by in vitro antifungal assay
Format: cell-based, Candida auris
Method: The antifungal agent amphotericin B (AmB) was purchased from VWR (Radnor PA, USA). AmB was dissolved in DMSO at a final concentration of 5 mg/mL and was stored at −20° C., protected from light. Candida albicans American Type Culture Collection (ATCC) 10231 (strain A), C. albicans ATCC 64124 (B), and C. albicans ATCC MYA-2876 (C) were obtained from Utah State University. C. albicans ATCC 90819 (D), C. albicans ATCC MYA-2310 (E), C. albicans ATCC MYA-1237 (F), C. albicans ATCC MYA-1003 (G), Candida glabrata ATCC 2001 (H), Candida krusei ATCC 6258 (I), Candida parapsilosis ATCC 22019 (J), Cryptococcus neoformans ATCC MYA-895 (M), Aspergillus terreus ATCC MYA-3633 (N), and Aspergillus flavus ATCC MYA-3631 (0) were obtained from the American Type Culture Collection (ATCC; Manassas, VA, USA). Aspergillus nidulans ATCC 38163 (P) was obtained from University of Kentucky. Clinically derived Aspergillus fumigatus NRRL 163 (Q), A. fumigatus NRRL 5109 (R), and A. fumigatus NRRL 6113 (S) were obtained from Northern Regional Research Laboratory (NRRL). Candida auris 384 (K), C. auris 390 (L), and fungal strains 381-400 (including 10 C. auris (AR Bank #381-390), 3 Candida duobushaemulonii (AR Bank #391, AR Bank #392, and AR Bank #394), 2 Candida haemulonii (AR Bank #393 and AR Bank #395), 1 Kodameae ohmeri (AR Bank #396), 1 C. krusei (AR Bank #397), 1 Candida lusitaniae (AR Bank #398), and 2 Saccharomyces cerevisiae strains (AR Bank #399 and AR Bank #400)) were part of a larger fungal library from the AR Bank maintained by the Centers for Disease Control and Prevention (CDC; Atlanta, GA, USA). Filamentous fungi and yeasts were cultivated at 35° C. in RPMI 1640 medium (with L-glutamine, without sodium bicarbonate, Sigma-Aldrich, St. Louis, MO) buffered to a pH of 7.0 with 0.165 M morpholinepropanesulfonic acid (MOPS) buffer (Sigma-Aldrich). For cytotoxicity assays, HepG2 and the mouse macrophage cell line J774A.1 were obtained from University of Kentucky. The human embryonic kidney cell line, HEK-293, was bought from the ATCC. Mammalian cells were grown in Dulbecco's Modified Eagle's Medium (DMEM) (from VWR) with 10% fetal bovine serum (FBS) (from VWR) and 1% Pen/Strep (from ATCC). Cell lines were cultured at 37° C. with 5% CO2 and passaged by trypsinization with 0.05% trypsin: 0.53 mM EDTA (from Sigma-Aldrich).
From the actively growing yeast culture, 100 µL were then transferred to 900 μL of RPMI 1640 medium and re-adjusted to achieve OD600 of 0.12 (˜1×10^6 CFU/mL). The cell suspension was further diluted to achieve 1:100 in RPMI 1640 medium.
Finally, the activity of these monohydrazides was explored against […] non-Candida strains: Cryptococcus neoformans ATCC MYA-895 (M), Aspergillus terreus ATCC MYA-3633 (N), Aspergillus flavus ATCC MYA-3631 (O), Aspergillus nidulans ATCC 38163 (P), Aspergillus fumigatus NRRL 163 (Q), A. fumigatus NRRL 5109 (R), and A. fumigatus NRRL 6113 (S) (Tables 1A and 1B). The double dilution method was used with concentrations ranging from 0.06 to 31.3 j·tg mL^−1 for monohydrazides 1a-9j, and the commercially available positive antifungal control amphotericin B (AmB).

[1] = Candidozyma auris, strain L = C. auris AR Bank # 0390 (Tables 1A/1B), read-out: MIC
[2] = Candidozyma auris, C. auris AR Bank # 390 (L) (Table 2B), read-out: MIC
[3] = strain L = C. auris AR Bank # 0390 (Tables 1A/1B)
[4] = C. auris AR Bank # 390 (L) (Table 2B)
[5] = Candidozyma auris, C. auris AR Bank #390 (L), read-out: MIC

| Structure (SMILES) | MIC [1] [µg/mL] | MIC [3] [μg/mL^−1] | also measured |
| --- | --- | --- | --- |
| O=C(NNc1cc(Cl)cc(Cl)c1)c1cnccn1 [Compound 9j] | 7.8 (≈ 27.6 µM) | – | – |
| O=C(NNc1ccc(F)cc1F)c1nc(F)ccc1F [Compound 8g] | 1.95 (≈ 6.84 µM) | – | MIC [2]: 31.3 µg/mL (≈ 110 µM) |
| COc1ccc(NNC(=O)c2ccc(F)cn2)cc1 [Compound 3f] | – | 0.49 | – |
| O=C(NNc1ccc(F)cc1F)c1ccc(F)cn1 [Compound 3g] | 3.9 (≈ 14.6 µM) | – | MIC [2]: 3.9 µg/mL (≈ 14.6 µM) |
| O=C(NNc1ccc(F)cc1F)c1ccc(F)cc1F [Compound 1g] | 7.8 (≈ 27.4 µM) | – | – |
| O=C(NNc1ccc(Cl)cc1)c1ccccn1 [Compound 2e] | – | 1.95 | MIC (C. auris AR Bank #390 (L)): 1.95 μg/mL^−1 |
| O=C(NNc1cc(F)cc(F)c1)c1cnccn1 [Compound 9i] | 1.95 (≈ 7.79 µM) | – | – |
| O=C(NNc1ccc(F)cc1F)c1cccc(F)n1 [Compound 5g] | 3.9 (≈ 14.6 µM) | – | MIC [2]: 3.9 µg/mL (≈ 14.6 µM) |
| O=C(NNc1cccc(Cl)c1)c1ccccn1 [Compound 2b] | – | 0.98 | MIC (C. auris AR Bank #390 (L)): 0.49 μg/mL^−1 |
| COc1cccc(NNC(=O)c2nc(F)ccc2F)c1 [Compound 8c] | 15.6 (≈ 55.9 µM) | – | – |
| O=C(NNc1ccc(F)cc1)c1ccc(F)cn1 [Compound 3d] | – | 0.98 | MIC [4]: 3.9 μg/mL^−1 |
| O=C(NNc1ccc(F)cc1F)c1ccccn1 [Compound 2g] | 0.12 (≈ 0.482 µM) | – | MIC [5]: 0.12 µg/mL (≈ 0.482 µM) |
| COc1cccc(NNC(=O)c2ccc(F)cc2F)c1 [Compound 1c] | 1.95 (≈ 7.01 µM) | – | – |
| O=C(NNc1ccc(F)cc1F)c1ccc(Br)cn1 [Compound 4g] | 31.3 (≈ 95.4 µM) | – | – |
| O=C(NNc1cc(F)ccc1F)c1ccc(F)cc1F [Compound 1h] | 15.6 (≈ 54.9 µM) | – | – |
| O=C(NNc1cccc(F)c1)c1cnccn1 [Compound 9a] | – | 0.98 | – |
| COc1ccc(NNC(=O)c2ccc(Br)cn2)cc1 [Compound 4f] | 1.95 (≈ 6.05 µM) | – | – |
| C[C@@H]1[C@H](O)[C@@H](C)/C=C/C=C/C=C/C=C/C=C/C=C/C=C/[C@H](O[C@@H]2O[C@H](C)[C@@H](O)[C@H](N)[C@@H]2O)C[C@@H]2O[C@](O)(C[C@@H](O)C[C@@H](O)[C@H](O)CC[C@@H](O)C[C@@H](O)CC(=O)O[C@H]1C)C[C@H](O)[C@H]2C(=O)O [AmB, amphotericin B, reference compound] | – | 1.95 | MIC (C. auris AR Bank #390 (L)): 1.95 μg/mL^−1; MIC [4]: 1.95 μg/mL^−1 |
| O=C(NNc1ccc(F)cc1)c1ccc(F)cc1F [Compound 1d] | 1.95 (≈ 7.32 µM) | – | – |
| O=C(NNc1ccc(F)cc1)c1cnccn1 [Compound 9d] | 0.98 (≈ 4.22 µM) | – | – |
| COc1cccc(NNC(=O)c2ccc(F)cn2)c1 [Compound 3c] | – | 0.98 | MIC [4]: 3.9 μg/mL^−1 |

| Structure (SMILES) | MIC [1] [µg/mL] | MIC [3] [μg/mL^−1] | also measured |
| --- | --- | --- | --- |
| COc1ccc(NNC(=O)c2nc(F)ccc2F)cc1 [Compound 8f] | 0.98 (≈ 3.51 µM) | – | MIC [2]: 31.3 µg/mL (≈ 112 µM) |
| O=C(NNc1cccc(F)c1)c1ccccn1 [Compound 2a] | – | 0.33 | MIC (C. auris AR Bank #390 (L)): 0.24 μg/mL^−1 |
| COc1cccc(NNC(=O)c2ccccn2)c1 [Compound 2c] | – | 0.98 | MIC (C. auris AR Bank #390 (L)): 0.98 μg/mL^−1 |
| O=C(NNc1ccc(F)cc1F)c1ncc(F)cc1F [Compound 7g] | 1.95 (≈ 6.84 µM) | – | MIC [2]: 7.8 µg/mL (≈ 27.3 µM) |
| O=C(NNc1cc(Cl)cc(Cl)c1)c1ccc(F)cc1F [Compound 1j] | > 31.3 | – | MIC [2]: > 31.3 µg/mL |
| O=C(NNc1cc(F)cc(F)c1)c1ccccn1 [Compound 2i] | 0.49 (≈ 1.97 µM) | – | MIC [5]: 0.49 µg/mL (≈ 1.97 µM) |
| O=C(NNc1cc(F)cc(F)c1)c1ccc(F)cc1F [Compound 1i] | 15.6 (≈ 54.9 µM) | – | – |
| O=C(NNc1cccc(F)c1)c1ccc(F)cc1F [Compound 1a] | – | 0.24 | – |
| COc1cccc(NNC(=O)c2ncc(F)cc2F)c1 [Compound 7c] | 15.6 (≈ 55.9 µM) | – | – |
| O=C(NNc1ccc(Cl)cc1)c1cnccn1 [Compound 9e] | – | 3.9 | MIC (C. auris AR Bank #390 (L)): 3.9 μg/mL^−1 |
| O=C(NNc1ccc(Cl)cc1)c1cccc(F)n1 [Compound 5e] | – | 7.8 | MIC [4]: 7.8 μg/mL^−1 |
| O=C(NNc1ccc(F)cc1)c1ncc(F)cc1F [Compound 7d] | 0.98 (≈ 3.67 µM) | – | MIC [2]: 3.9 µg/mL (≈ 14.6 µM) |
| O=C(NNc1cccc(F)c1)c1ccc(F)cn1 [Compound 3a] | – | 0.98 | – |
| O=C(NNc1ccc(Cl)cc1)c1ncc(F)cc1F [Compound 7e] | – | 7.8 | MIC [4]: 7.8 μg/mL^−1 |
| O=C(NNc1cccc(Cl)c1)c1cnccn1 [Compound 9b] | 0.98 (≈ 3.94 µM) | – | MIC [5]: 0.49 µg/mL (≈ 1.97 µM) |
| O=C(NNc1ccc(F)cc1)c1cccc(Br)n1 [Compound 6d] | 0.98 (≈ 3.16 µM) | – | MIC [2]: 3.9 µg/mL (≈ 12.6 µM) |
| COc1ccc(NNC(=O)c2ccc(F)cc2F)cc1 [Compound 1f] | 1.95 (≈ 7.01 µM) | – | – |
| COc1cccc(NNC(=O)c2cnccn2)c1 [Compound 9c] | 0.98 (≈ 4.01 µM) | – | MIC [5]: 0.98 µg/mL (≈ 4.01 µM) |
| O=C(NNc1cccc(F)c1)c1ccc(Br)cn1 [Compound 4a] | – | 1.95 | – |
| O=C(NNc1cc(F)ccc1F)c1cnccn1 [Compound 9h] | 1.95 (≈ 7.79 µM) | – | – |
| COc1ccc(NNC(=O)c2ccccn2)cc1 [Compound 2f] | 0.12 (≈ 0.493 µM) | – | MIC [5]: 0.12 µg/mL (≈ 0.493 µM) |

| Structure (SMILES) | MIC [1] [µg/mL] | MIC [3] [μg/mL^−1] | also measured |
| --- | --- | --- | --- |
| O=C(NNc1ccc(Cl)cc1)c1nc(F)ccc1F [Compound 8e] | – | 7.8 | MIC [4]: 7.8 μg/mL^−1 |
| O=C(NNc1ccc(F)cc1F)c1cnccn1 [Compound 9g] | 0.98 (≈ 3.92 µM) | – | MIC [5]: 0.98 µg/mL (≈ 3.92 µM) |
| COc1ccc(NNC(=O)c2cnccn2)cc1 [Compound 9f] | 0.49 (≈ 2.01 µM) | – | MIC [5]: 0.98 µg/mL (≈ 4.01 µM) |
| O=C(NNc1cccc(F)c1)c1cccc(Br)n1 [Compound 6a] | – | 1.95 | – |
| COc1cccc(NNC(=O)c2ccc(Br)cn2)c1 [Compound 4c] | 0.98 (≈ 3.04 µM) | – | – |
| O=C(NNc1ccc(Cl)cc1)c1ccc(F)cn1 [Compound 3e] | – | 7.8 | MIC [4]: 7.8 μg/mL^−1 |
| O=C(NNc1ccc(F)cc1)c1ccc(Br)cn1 [Compound 4d] | 3.9 (≈ 12.6 µM) | – | MIC [2]: 7.8 µg/mL (≈ 25.2 µM) |
| COc1ccc(NNC(=O)c2ncc(F)cc2F)cc1 [Compound 7f] | 0.98 (≈ 3.51 µM) | – | MIC [2]: 31.3 µg/mL (≈ 112 µM) |
| O=C(NNc1ccc(F)cc1)c1nc(F)ccc1F [Compound 8d] | 0.98 (≈ 3.67 µM) | – | MIC [2]: 1.95 µg/mL (≈ 7.3 µM) |
| O=C(NNc1cc(F)ccc1F)c1ccccn1 [Compound 2h] | 0.98 (≈ 3.93 µM) | – | MIC [5]: 0.98 µg/mL (≈ 3.93 µM) |
| O=C(NNc1cccc(F)c1)c1nc(F)ccc1F [Compound 8a] | – | 1.95 | – |
| O=C(NNc1ccc(F)cc1)c1ccccn1 [Compound 2d] | 0.98 (≈ 4.24 µM) | – | MIC [5]: 0.98 µg/mL (≈ 4.24 µM) |
| O=C(NNc1cccc(Cl)c1)c1ccc(F)cc1F [Compound 1b] | 7.8 (≈ 27.6 µM) | – | MIC [2]: 7.8 µg/mL (≈ 27.6 µM) |
| O=C(NNc1cc(Cl)cc(Cl)c1)c1ccccn1 [Compound 2j] | 1.95 (≈ 6.91 µM) | – | MIC [5]: 3.9 µg/mL (≈ 13.8 µM) |
| COc1ccc(NNC(=O)c2cccc(F)n2)cc1 [Compound 5f] | 1.95 (≈ 7.46 µM) | – | – |
| COc1ccc(NNC(=O)c2cccc(Br)n2)cc1 [Compound 6f] | 1.95 (≈ 6.05 µM) | – | – |
| O=C(NNc1ccc(Cl)cc1)c1ccc(F)cc1F [Compound 1e] | – | >31.3 | – |
| O=C(NNc1cccc(F)c1)c1ncc(F)cc1F [Compound 7a] | – | 1.95 | – |
| O=C(NNc1cccc(F)c1)c1cccc(F)n1 [Compound 5a] | – | 3.9 | – |
| O=C(NNc1ccc(F)cc1)c1cccc(F)n1 [Compound 5d] | 0.98 (≈ 3.93 µM) | – | MIC [2]: 1.95 µg/mL (≈ 7.82 µM) |
